Laboratory results: a melting point compilation (Tetko et al.; mined from patent text by program, amines drawn as free bases though some values may be those of a salt)

Row | Compound | melting point [°C]
1 | Cc1cc(-c2cc(C(F)F)n3ncc(I)c3n2)ccc1Cl | 144
2 | COc1cccc2c1Cc1ccccc1C2(CCOS(C)(=O)=O)CCOS(C)(=O)=O | 128 to 131
3 | Clc1ccc(-c2cccs2)nn1 | 155
4 | CCC(=O)OC(C#N)C(C#N)c1cccc(OC)c1 (stereo unspecified) | 73
5 | Cc1nc2c(cc1C#CCO)c(=O)c(C(=O)NCc1ccc(Cl)cc1)cn2C | 217 to 218
6 | CCOc1cc(C=C2CCN(C(N)=O)C2=O)ccc1O | 204 to 205
7 | Cc1oc(-c2ccccc2)nc1COc1ccc(CC2SC(=O)NC2=O)cn1 (stereo unspecified) | 151 to 152
8 | COc1ccc(-c2cc3c(C#N)c(OC)ccc3o2)cc1 | 120 to 122
9 | CCc1oc2ccccc2c1C(=O)c1ccc(OCCOS(=O)(=O)c2ccc(C)cc2)cc1 | 95 to 98
10 | O=C(CBr)Nc1cccc(OC(=O)CBr)c1 | 96 to 98
11 | CS(=O)(=O)c1ccc(-c2cnn(CC(F)(F)F)c(=O)c2NC2CCc3ccccc32)cc1 (stereo unspecified) | 155 to 158
12 | Clc1ccc(OCc2cccs2)cc1 | 45 to 47
13 | COc1cc2c(cc1Nc1ncc(Cl)c(Nc3ccccc3S(=O)(=O)C(C)C)n1)CCN(CC(=O)N1CCCC1)CC2 | 88 to 105
14 | C=CCC1(CC=C)c2cc(N(c3ccccc3)c3ccccc3)ccc2-c2ccc(N(c3ccccc3)c3ccccc3)cc21 | 179 to 183
15 | CC1c2cc([Si](C)(C)C)ccc2-c2ccc([Si](C)(C)C)cc21 | 107 to 108
16 | Cc1ccc([N+](=O)[O-])cc1Nc1nccc(-c2cncc(Br)c2)n1 | 206 to 208
17 | N#Cc1ccccc1NC(=O)c1snc(Cl)c1Cl | 191 to 193
18 | CC(C)CN(CC(O)(Cn1cncn1)c1ccc(Cl)cc1Cl)S(C)(=O)=O (stereo unspecified) | 128 to 129
19 | CNC(=S)C1=C(O)C(COC)(COC)Oc2ccc([N+](=O)[O-])cc21 | 97 to 101
20 | O=C(NC(=O)c1c(Cl)cccc1Cl)Nc1ccc(-c2ccc(Cl)cc2)nc1 | 225 to 229
21 | O=C1CC=C2CCC(=O)N12 | 155 to 156
22 | CCOC1CCC(=O)N1S(=O)(=O)c1ccccc1 (stereo unspecified) | 112 to 113
23 | Cc1ccc(-c2ccccc2C(=O)Nc2ccc(C(=O)N(CCO)c3ccccc3C)cc2)cc1 | 115 to 118
24 | O=[N+]([O-])c1ccc2c(c1)N[C@@H]1c3cc([N+](=O)[O-])ccc3C[C@H]21 (relative stereo) | 174 to 176
25 | CCOC(=O)Oc1ccc([N+](=O)[O-])c(C(=O)O)c1 | 132 to 137
26 | C#CC[C@H](c1nc2cc(Cl)ccc2c(=O)n1Nc1ccccc1)N(CCCN1C(=O)c2ccccc2C1=O)C(=O)c1cccc(Cl)c1F | 130 to 132

Row | Compound | melting point [°C]
27 | COc1ccc2cc(-c3cccnc3)cc(C)c2n1 | 117 to 118
28 | CCC(C)N(C)C(=O)c1cc(-c2ccc(C)c(C)c2)c2sccc2c1 (stereo unspecified) | 120
29 | Cc1ccc(C(=O)OC(C)c2nc3c(c(=O)n(C)c(=O)n3C)n2C)cn1 (stereo unspecified) | 165 to 180
30 | CCc1cc2c(cc1F)c(C#N)c(-c1ccc(S(=O)(=O)N[C@@H](C)C(F)(F)F)cn1)n2-c1ncccn1 | 195 to 198
31 | CC(C)(C)OC(=O)NCCn1cc(COc2ccc(C3=NC(=Nc4[nH]c(-c5ccc(O)cc5)cc4-c4ccccc4)C(c4ccccc4)=C3)cc2)nn1 | 128 to 130
32 | CC(C)(C)Sc1c(CC(C)(C)C(=O)O)n(Cc2ccc(Cl)cc2)c2c(OCc3ccc4ccccc4n3)cccc12 | 206
33 | c1ccc(N=C2CCCCN2)c(CN2CCOCC2)c1 | 108 to 110
34 | CCOC(=O)c1oc2ccc(Cl)cc2c1CBr | 112 to 114
35 | Nc1ccc2c(c1)C(=O)N(CCO)CO2 | 94 to 96
36 | Cc1cccc(NC(=O)NC2CN(C(=O)C3CCCCC3)c3ccccc3N(CC(=O)c3ccccc3C)C2=O)c1 (stereo unspecified) | 148 to 151
37 | O=c1[nH][nH]c(=O)n1CCCl | 192 to 193
38 | O=[N+]([O-])c1cccc(Nc2nccc(-c3cccnc3)n2)c1 | 212 to 213
39 | COc1ccc(C(=O)Nc2ccccc2)cc1NCc1cccc(F)c1F | 134 to 135
40 | Nc1nc(-c2ccccc2)c(C(O)CO)c2ncnn12 (stereo unspecified) | 199 to 200
41 | NC(=S)NN=C(CCCCl)c1ccc(O)cc1 | 126 to 129
42 | CCCCCCCCC(C)C(N)=O (stereo unspecified) | 80 to 81
43 | N#CCc1cccc2c(-c3ccc(C(F)(F)F)cc3)nccc12 | 122 to 123
44 | COc1ccc(C2=NNC(=O)[C@H]3CCCC[C@@H]23)cc1OC (relative stereo) | 143 to 146
45 | CC(=O)c1ccc2c(c1)C(N1CCCC1=O)=CC(C)(C)O2 | 106 to 108
46 | O=C(c1ccccc1)N1CCn2c(CN3CCOCC3)ccc2C1 | 101 to 102
47 | Nc1ncc(S(=O)(=O)Nc2ccc(Br)c3c(Cl)c[nH]c23)cn1 | 285 to 289
48 | N#Cc1c(Br)c(-c2ccc(Cl)cc2)n(C(=O)c2ccccc2)c1Cl | 179 to 181
49 | NC(=O)c1ccccc1N1CCc2cc(Cl)ccc21 | 137 to 138
50 | Cc1nnc2n1-c1ccc(Cl)cc1C(c1ccccc1F)=CC2 | 223 to 225
51 | CC(C)(C)NC(=O)C(Br)CCl (stereo unspecified) | 163 to 168
52 | NC(=O)NS(=O)(=O)c1ccccc1Cl | 160 to 163

Row | Compound | melting point [°C]
53 | CC(C)Oc1cc(N2C(=O)C3COCCN3C2C(=O)O)c(F)cc1Cl (stereo unspecified) | 59 to 61
54 | CC1(C)SC(=S)N(c2ccccn2)C1O (stereo unspecified) | 80
55 | COC(=O)c1nc(CI)n(-c2ccc(Cl)cc2C(=O)c2ccccc2)n1 | 139 to 142
56 | Fc1ccc(Cn2c(NC3CCN(CCNc4ncccn4)CC3)nc3ccccc32)cc1 | 168
57 | COc1ccc(S(=O)(=O)N(Cc2cc(C(C)(C)C)c(O)c(C(C)(C)C)c2)c2cccnc2)cc1 | 142 to 143
58 | CC(CN1C(=O)c2ccccc2C1=O)OS(C)(=O)=O (stereo unspecified) | 111 to 121
59 | O=C1N(Cc2ccccn2)c2ccccc2C12COc1cc3c(c(-c4ccoc4)c12)CCO3 (stereo unspecified) | 195 to 197
60 | COC(=O)CC/C(C)=C/Cc1c(OC)c(C)c2c(c1C(=O)O)C(=O)OC2 | 169 to 170
61 | CCOCCn1cc2c(C3C(=O)Nc4ccc(Br)cc43)nc(NCCN3CCOCC3)nc2n1 (stereo unspecified) | 276 to 278
62 | CCc1cc2c(s1)-c1ccccc1C(CC)N2S(=O)(=O)c1ccc(O)cc1 (stereo unspecified) | 119 to 122
63 | CC(CCCS(C)(=O)=O)C(c1cc(F)ccc1F)S(=O)(=O)c1ccc(Cl)cc1 (stereo unspecified) | 115 to 117
64 | N#CCOc1cccc(CCNS(=O)(=O)c2ccc(Cl)cc2)c1 | 92
65 | CC(Oc1ncn(-c2cccc(F)c2)n1)C(N)=O (stereo unspecified) | 156 to 158
66 | O=C(C=Cc1cccnc1)NCCCCC1CCN(C(c2ccccc2)C2CCCCC2)CC1 (stereo unspecified) | 143 to 145
67 | CCNc1nc(Nc2ccccc2)ncc1CO | 174 to 176
68 | CSC(Cc1ccc2oc(Cc3nc(-c4ccccc4)oc3C)cc2c1)C(=O)O (stereo unspecified) | 178 to 179
69 | Nc1nc2ccccc2c2c1nc(CO)n2CC1(O)CCCCC1 | 244 to 248
70 | COc1ccc(C2CCCCC2)cc1-c1csc(NC(=O)C2CCN(C(=O)OC(C)(C)C)CC2)n1 | 193
71 | CC(C)(C)OC(=O)N1CCc2onc(O)c2C1 | 151 to 152
72 | CN(c1cccc2cc(-c3ncc(CN4CCC5(CC4)CNC(=O)O5)s3)[nH]c12)S(=O)(=O)c1cccs1 | 224
73 | CC(c1ccc(-c2ccccc2F)cc1)S(=O)(=O)CC(=O)O (stereo unspecified) | 144 to 146
74 | CCOC(=O)c1cnc(Nc2ccc(N(C)C)cc2)[nH]c1=O | 246 to 248
75 | O=C(O)CCc1ccc(CO)cc1 | 124 to 126
76 | CCNc1nc2ccccc2n2c(C(C)C)nnc12 | 209 to 211
77 | CCOC(=O)c1cc(=O)c2c(OCC(O)COc3ccc(OC)cc3)cccc2o1 (stereo unspecified) | 135 to 136
78 | Cc1cccc(-c2nc(Nc3ccc(Cl)cc3)c3ccccc3n2)n1 | 256 to 259

Row | Compound | melting point [°C]
79 | C1COCCOCCOCCNCCOCCOCCOCCN1 | 15
80 | Oc1c(F)cc2c(c1F)CC(n1cc[nH]c1=S)CC2 (stereo unspecified) | 258 to 260
81 | O=C1c2ccccc2C(=O)N1CCCCc1nccc(NC(=S)NCC(F)(F)F)n1 | 204 to 205
82 | CN(O)CC1=C(n2ccccc2=O)c2cc([N+](=O)[O-])ccc2OC1(C)C | 159
83 | CCN1CCC(c2c[nH]c3ccc(NS(C)(=O)=O)cc23)CC1 | 179 to 181
84 | CC(C)n1cc(C2CCC3(CC2)OCCO3)c2cc(C#N)ccc21 | 114 to 116
85 | Cn1cnc(COc2nn3c(-c4ccccc4F)nnc3cc2C2CCC2)c1 | 176
86 | CCn1cc(C(=O)O)c(=O)c2cc(F)c(N3CC4CCC3CN4)cc21 (stereo unspecified) | 270 to 272
87 | CCCSC1=Nc2ccccc2SN1 | 168 to 170
88 | CC(=O)NC1=NN(c2ccc(F)cc2)C(C)C1 (stereo unspecified) | 136 to 138
89 | BrCc1ccc(-c2cnn(-c3ccc(CBr)cc3)n2)cc1 | 144 to 145
90 | N#Cc1cn2c(nc1=O)CCCCC2 | 205 to 206
91 | CNc1nc(N(C)C)nc2c1nnn2Cc1ccccc1F | 199 to 200
92 | NCc1ccc(N2C(=O)N(c3ccccc3Br)Cc3cnc(Nc4ccccc4)nc32)cc1 | 133 to 136
93 | CC1CC(=O)c2cc(O)cnc2C1 (stereo unspecified) | 210 to 212
94 | C1=c2ccn3c2=C(CC1)c1nncn1-c1ccccc1-3 | 177 to 178
95 | CCCCCCCCCCCCCCCCNC(=O)c1cccnc1 | 85 to 87
96 | CC(C)(C)c1ccc(CCC(O)CCC2CCCCC2)cc1NC(=O)CC1c2ccccc2Oc2ccccc21 (stereo unspecified) | 136 to 137
97 | CCCc1nc(C#N)c(C#N)n1C(c1ccccc1)(c1ccccc1)c1ccccc1 | 107
98 | CCC(=O)O[C@@H]1[C@@H](c2ccccc2)Nc2c(ccn3c(C)c(C)nc23)[C@H]1OCCOC | 106 to 107
99 | Cc1nn2c(C(F)(F)F)cc(-c3cccc(C(F)(F)F)c3)nc2c1C#N | 215
100 | CCCCCCCCCCCCNC(=O)COc1ccc(/C=C/C(=O)C(F)(F)F)cc1 | 78.5 to 79
101 | Brc1ccc2c(Br)c3cc(Br)ccc3c(Br)c2c1 | 293 to 296
